Laboratory results published in patent publication US20050119301A1, “Treatment of restenosis” (priority 2001, published 2005).

Legend:
[1] = test system: IMA-derived human VSMC primed with PDGF BB; assay: PDGF BB-induced VSMC DNA synthesis, proliferation and cell number; format: cell-based; details: for proliferation of IMA cells primed with PDGF BB (in words): Cpd. 7 at concentrations as low as 0.1 nM; for effect of ER antagonist ICI 182780 on the inhibitory effect: ICI 182780 100 nmol/L
Procedure: Cell proliferation was induced by a variety of growth factors such as serum and platelet derived growth factor (PDGF).
Media was changed to LG serum-free DMEM and cells were treated with [^3H]-thymidine at 1 μCi/well for 3 hours. Cells were washed twice with ice cold Dulbecco's PBS. Next, ice cold 0.2M HClO4 (1 ml/well) was added and cells were incubated on ice for 30 min. Cells were then washed three times with 0.5 ml/well of ice cold 0.2M HClO4. Media (0.5 ml/well of 0.2 M NaOH) was replaced and cells were incubate at 37° C. After 1 hour, cells were treated with acetic acid (6%, 0.2 ml/well), transferred to scintillation vials with 3 ml scintillation liquid (Instagel) and counted for 2 min per vial.
The effect of Cpd. 5 and Cpd. 7 was tested further in IMA-derived human VSMC primed with PDGF BB instead of serum. […] (FIG. 12). This effect was equivalent to that observed with estradiol. Cpd.
In further experiments Cpd. […] 7 at 100 nmol/L), indicating ER-mediation. […] 7 (1-100 nmol/L).

[2] = Peroxyl radical scavenging, AAPH-induced oxidation of linoleate; format: biochemical; set-up: dose or concentration left out as unconfirmed
Procedure: Peroxyl radicals are natural side-products of a number of enzymes, including lipoxygenases and cyclo-oxygenase. Peroxyl radicals were generated by the thermo-labile azo-initiator AAPH. AAPH-induced oxidation of linoleate was performed as described previously (Pryor et al., 1993), except that a lower linoleate concentration was used and SDS was omitted. An aliquot of a linoleate stock solution was added to PBS at 37° C. to give a final concentration of […]. Oxidation was initiated by the addition of AAPH (87.5 mM final concentration) in the absence and presence of either 10 mM of Cpd. 7, Cpd. 8 or Cpd. 12 or 500 mM ascorbate (positive control). Formation of linoleate hydroperoxide was monitored by UV 234 nm using a Perkin Elmer's UV/Vis Lambda 40 spectrophotometer. The test was performed twice as single analysis. An appropriate concentration of alcohol (ethanol and isopropanol; 0.13%-0.2% v/v) was included in the respective control samples.

[3] = biological target: T1, Soybean 15-lipoxygenase (SLO) (Glycine max, UniProt P08170); assay: Inhibition of lipoxygenase, SLO-induced oxidation of linoleate; format: biochemical; set-up: dose or concentration left out as unconfirmed
T1 construct: purchased Sigma, St. Louis, Mo
T1 sequence (P08170 1-839): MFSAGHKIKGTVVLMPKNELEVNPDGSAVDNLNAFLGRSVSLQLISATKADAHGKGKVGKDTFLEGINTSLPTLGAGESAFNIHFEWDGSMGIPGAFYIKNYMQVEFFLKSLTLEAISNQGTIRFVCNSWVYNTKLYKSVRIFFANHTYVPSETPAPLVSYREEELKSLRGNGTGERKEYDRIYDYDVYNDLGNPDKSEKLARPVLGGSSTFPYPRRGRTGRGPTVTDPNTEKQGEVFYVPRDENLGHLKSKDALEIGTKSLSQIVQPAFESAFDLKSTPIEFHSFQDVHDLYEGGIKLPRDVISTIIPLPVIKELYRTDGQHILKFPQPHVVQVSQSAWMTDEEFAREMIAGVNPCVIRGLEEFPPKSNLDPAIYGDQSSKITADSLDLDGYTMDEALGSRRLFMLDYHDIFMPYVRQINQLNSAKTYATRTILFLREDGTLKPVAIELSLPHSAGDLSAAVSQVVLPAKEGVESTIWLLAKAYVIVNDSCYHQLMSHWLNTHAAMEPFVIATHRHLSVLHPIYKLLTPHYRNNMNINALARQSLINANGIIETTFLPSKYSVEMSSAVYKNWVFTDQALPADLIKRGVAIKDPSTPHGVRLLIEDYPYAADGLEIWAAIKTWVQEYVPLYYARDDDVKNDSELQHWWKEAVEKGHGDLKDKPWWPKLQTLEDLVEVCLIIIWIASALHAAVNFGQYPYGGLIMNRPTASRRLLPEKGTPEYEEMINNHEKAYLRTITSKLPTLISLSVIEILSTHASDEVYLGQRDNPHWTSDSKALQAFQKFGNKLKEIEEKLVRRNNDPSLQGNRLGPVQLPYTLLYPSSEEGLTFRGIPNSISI
Procedure: Soybean 15-lipoxygenase (SLO) is a suitable model of 15-lipoxygenase and was therefore used to assess the ability of Cpd. 7, Cpd. 8 and Cpd. 12 to inhibit this enzyme. SLO-induced oxidation of linoleate was performed as described previously (Upston et al., 1996). Briefly, linoleate (100 mM) in PBS was oxidized by SLO (60 U/mL) in the absence and presence of 10 mM Cpd. 7, Cpd. 8 or Cpd. 12, or 100 mM eicosatetraynoic acid (ETYA, positive control). Formation of linoleate hydroperoxide was monitored by UV 234 nm using the Perkin Elmer's UV/Vis Lambda 40 spectrophotomneter. The test was performed twice as single analysis. An appropriate concentration of alcohol (ethanol and isopropanol; 0.13% -0.2% v/v) was included in the respective control samples.

SMILES | proliferation of IMA cells primed with PDGF BB (in words) [1] | PDGF BB-induced increases in cell number ([1]; 1-100 nmol/L) | inhibition at 0.001 µM ([1]; Homo sapiens, VSMC, 3 h, 1 nmol/L, read-out: inhibition of PDGF BB-induced DNA synthesis ([3H]-thymidine incorporation)) | inhibition at 0.01 µM ([1]; Homo sapiens, VSMC, 3 h, 10 nmol/L, read-out: inhibition of PDGF BB-induced DNA synthesis ([3H]-thymidine incorporation)) | inhibition at 0.1 µM ([1]; Homo sapiens, VSMC, 3 h, 100 nmol/L, read-out: inhibition of PDGF BB-induced DNA synthesis ([3H]-thymidine incorporation)) | effect of ER antagonist ICI 182780 on the inhibitory effect ([1]; compound at 100 nmol/L) | effect of ER antagonist ICI 182780 on the inhibitory effect ([1]; compound at 1-10 nmol/L) | inhibition of AAPH-induced oxidation of linoleic acid, 234 nm absorbency (in words) [2] | inhibition of soybean 15-lipoxygenase (in words) [3]
O=C1c2ccc(O)cc2OCC1c1ccc(O)cc1 (centres unmarked) [Cpd. 5] | no observed effect on cellular proliferation | – | – | – | – | – | – | – | –
Oc1ccc(C2COc3cc(O)ccc3C2O)cc1 (centres unmarked) [Cpd. 7] | inhibited proliferation | partly but significantly reduced | 10% | 17% | 17% | partly abolished | completely abolished | As for peroxyl radicals, neither Cpd. 7 nor Cpd. 8 were able to inhibit | neither Cpd. 7 nor Cpd. 8 were able to inhibit SLO
Oc1ccc(C2COc3cc(O)ccc3C2O)cc1 (centres unmarked) [Cpd. 8] | – | – | – | – | – | – | – | As for peroxyl radicals, neither Cpd. 7 nor Cpd. 8 were able to inhibit | neither Cpd. 7 nor Cpd. 8 were able to inhibit SLO
Oc1ccc(C2=Cc3ccc(O)cc3OC2)cc1 [Cpd. 12] | – | – | – | – | – | – | – | significantly inhibited the time-dependent increase in 234 nm absorbency | effective inhibitor of lipoxygenase type-1
